From patent publication US20030220201A1, “Method and device for the generation of cyclopropene compounds” (priority 2002, published 2003)

What was measured:
Assay type in all cases: physicochemical
[1] = Release of 1-MCP from 1-MCP/α-CD complex in water, fountain pump (Example 1); settings: 50 g 0.14% 1-MCP/α-CD complex in 250 ml water, pump approx. 200 liters/hour, 22° C.
Experimental: (§1) Fifty grams of 0.14% concentration of 1-MCP/α-CD complex in powdered form was placed into a 1000 ml beaker which also contained 250 ml of water. Into the beaker was also placed a Mini Jet® MN404 submersible pump (available from IPSD, Inc., San Diego, Calif.) which was set at a flow rate of approximately 200 liters/hour. This system was then placed into a 36 liter Plexiglas airtight chamber fitted with a septum for inserting a syringe for gas sampling. The temperature was set at 22° C.
(§2) After the chamber was sealed, the pump was turned on, creating a fountain-type flow in the beaker. The atmosphere of the chamber was sampled periodically to monitor the release of 1-MCP. The analysis was performed by gas chromatography using a flame ionization detector.

[2] = Release of 1-MCP from 1-MCP/α-CD complex in water, Comparative 1 (mix every 5 min.); settings: 50 g 0.14% complex in 250 ml water, swirling 30 seconds every 5 minutes, no pump
Experimental: as §1, §2
(§3) This procedure was repeated twice without using the pump for comparison purposes. The first comparison involved mixing the powdered suspension by swirling the contents of the beaker for 30 seconds, every 5 minutes. The second comparison involved using a 2 inch magnetic stir bar and a stir plate instead a pump to constantly mix the suspension.

[3] = Release of 1-MCP from 1-MCP/α-CD complex in water, Comparative 2 (stir bar); settings: 50 g 0.14% complex in 250 ml water, constant magnetic stir bar, no pump
Experimental: as §1, §2, §3

[4] = Release of 1-MCP by gas sparge, small scale (Example 2); settings: 50 g 0.14% complex in 250 ml water, air 100 liters/hour
Experimental: Fifty grams of a 0.14% 1-MCP/α-CD complex in powdered form was placed into a 600 ml beaker which contained 250 ml of water. Also present in the beaker is a 10 inch long segment of Bubble Wall air diffusers (IPSD, Inc. San Diego, Calif.). This was connected to a Tetratec® air pump (Tetra Co., Blacksburg, Va.) via flexible connective tubing. The pump was set at a rate of 100 liters/hour. This system was then placed in a 36 liter Plexiglas airtight chamber fitted with a septum for inserting a syringe for gas sampling.
After the chamber was sealed, the pump was turned on to sparge gas through the aqueous suspension. The air in the chamber was sampled periodically to determine the rate of 1-MCP released. Analysis was performed by gas chromatography using a flame ionization detector.

[5] = Release of 1-MCP by gas sparge, large scale, 0.14% complex (Example 3); settings: 3400 g 0.14% complex in 11 liters water, air 400 liters/hour, 22° C.
Experimental: Thirty four hundred grams of a 0.14% 1-MCP/α-CD complex in powdered form was placed into a 20 liter plastic vessel containing 11 liters of water and a 56 inch segment of a Bubble Wall air diffuser (IPSD, Inc., San Diego, Calif.). The air diffuser is hooked to a Pro Gold® Profile 400 air pump via flexible connective tubing. The pump was set at the rate of 400 liters of air/hour. The temperature was set at 22° C.
The vessel was covered and fitted with an outlet tube through which all of the escaping air had to pass. After the pump was turned on, the air exiting the vessel was sampled periodically for 1-MCP content. Analysis was by gas chromatography using a flame detector.

[6] = Release of 1-MCP by gas sparge, large scale, 3.3% complex, conical bottom vessel (Example 4); settings: 182 g 3.3% complex in 8 liters water, air 204 liters/hour, 22° C.
Experimental: One hundred eighty two grams of a 3.3% concentration of a 1-MCP/α-CD powder complex was placed in an 11 liter plastic vessel having a conical shaped bottom (at a 60 degree angle from horizontal). To the vessel was then added 8 liters of water. The vessel was fitted with a Kordon Mist Air® fine air diffuser (Novalek, Inc., Hayward, Calif.) hooked to a Sensidyne AP060SEEF60C1 air pump (available from Sensidyne Inc., Clearwater, Fla. which was set at a pumping rate of 204 liters of air/hour. The vessel was covered and then fitted with an outlet tube through which all of the vented air passed. The temperature was set at 22° C.
After the pump was turned on, the exiting air was sampled periodically for 1-MCP content. Analysis was by gas chromatography using a flame ionization detector.

SMILES: CC1=CC1 [1-MCP, 1-methylcyclopropene]
- Percent 1-MCP Released Fountain Pump ([1]; Time 0.08): 14%
- Percent 1-MCP Released Fountain Pump ([1]; Time 0.17): 43%
- Percent 1-MCP Released Fountain Pump ([1]; Time 0.42): 57%
- Percent 1-MCP Released Fountain Pump ([1]; Time 1.0): 79%
- Percent 1-MCP Released Fountain Pump ([1]; Time 1.5): 86%
- Percent 1-MCP Released Fountain Pump ([1]; Time 2.5 (hours)): 90%
- Percent 1-MCP Released Comparative 1 (mix every 5 min.) ([2]; Time 0.17): 4%
- Percent 1-MCP Released Comparative 1 (mix every 5 min.) ([2]; Time 0.42): 6%
- Percent 1-MCP Released Comparative 1 (mix every 5 min.) ([2]; Time 1.0): 9%
- Percent 1-MCP Released Comparative 1 (mix every 5 min.) ([2]; Time 3.0): 14%
- Percent 1-MCP Released Comparative 1 (mix every 5 min.) ([2]; Time 4.0): 16%
- Percent 1-MCP Released Comparative 1 (mix every 5 min.) ([2]; Time 5.5 (hours)): 17%
- Percent 1-MCP Released Comparative 2 (stir bar) ([3]; Time 0.17): 4%
- Percent 1-MCP Released Comparative 2 (stir bar) ([3]; Time 0.42): 6%
- Percent 1-MCP Released Comparative 2 (stir bar) ([3]; Time 1.0): 9%
- Percent 1-MCP Released Comparative 2 (stir bar) ([3]; Time 1.5): 14%
- Percent 1-MCP Released Comparative 2 (stir bar) ([3]; Time 2.5): 21%
- Percent 1-MCP Released Comparative 2 (stir bar) ([3]; Time 5.5 (hours)): 43%
- Percent 1-MCP Released (gas sparge) ([4]; Time 0.17 Hrs): 42%
- Percent 1-MCP Released (gas sparge) ([4]; Time 0.42 Hrs): 58%
- Percent 1-MCP Released (gas sparge) ([4]; Time 0.75 Hrs): 75%
- Percent 1-MCP Released (gas sparge) ([4]; Time 1.0 Hrs): 83%
- Percent 1-MCP Released (gas sparge) ([4]; Time 2.0 Hrs): 92%
- Percent 1-MCP Released (gas sparge) ([5]; Time 0.17 hrs.): 12%
- Percent 1-MCP Released (gas sparge) ([5]; Time 0.33 hrs.): 29%
- Percent 1-MCP Released (gas sparge) ([5]; Time 0.5 hrs.): 48%
- Percent 1-MCP Released (gas sparge) ([5]; Time 0.75 hrs.): 70%
- Percent 1-MCP Released (gas sparge) ([5]; Time 1.0 hrs.): 84%
- Percent 1-MCP Released (gas sparge) ([5]; Time 1.25 hrs.): 92%
- Percent 1-MCP Released (gas sparge) ([5]; Time 1.5 hrs.): 96%
- Percent 1-MCP Released (gas sparge) ([5]; Time 2.0 hrs.): 100%
- Percent 1-MCP Released (gas sparge) ([6]; Time 1.0 hrs.): 85%
- Percent 1-MCP Released (gas sparge) ([6]; Time 1.85 hrs.): 100%
